# According to PMC6886798, “Expression of myeloid Src-family kinases is associated with poor prognosis in AML and influences Flt3-ITD kinase inhibitor acquired resistance” (PLoS ONE, 2019):
# Where two headings read alike, the source gives them in different places.
# What was measured:
# [1] = system: parental TF-1 cells (GM-CSF); experiment: CellTiter-Blue cell viability; format: cell-based, human; conditions: at 3.0 μM; 72 hours; in the presence of GM-CSF
# Method: TF-1 and MV4-11 cells were obtained from the American Type Culture Collection (ATCC) and cultured in RPMI 1640 medium supplemented with 10% fetal bovine serum (FBS), 100 units/ml of penicillin, 100 μg/ml of streptomycin sulfate, and 0.25 μg/ml of amphotericin B (Antibiotic-Antimycotic; Gibco/ThermoFisher). Parental TF-1 cells also require recombinant human GM-CSF (1 ng/mL; ThermoFisher). MOLM13 and MOLM14 cells were obtained from Leibniz Institute Deutsche Sammlung von Mikroorganismen (DSMZ) and grown in RPMI 1640 medium containing 20% FBS and Antibiotic-Antimycotic. Human 293T cells were obtained from ATCC and cultured in Dulbecco's modified Eagle's medium (DMEM) containing 10% FBS and Antibiotic-Antimycotic.
# (§1) Cells were seeded at 10^5 per mL in the presence or absence of inhibitors with DMSO as carrier solvent (0.1% final). Cell viability was assessed using the CellTiter-Blue reagent according to the manufacturer’s instructions (Promega). Fluorescence intensity, which correlates directly with viable cell number, was measured using a SpectraMax M5 microplate reader. Each experiment included three technical replicates per condition, and each experiment was repeated at least three times.
# Hck T338F = molecular target: T1, Hck T338F (Homo sapiens, UniProt P08631, T333F); experiment: Z'-LYTE in vitro kinase assay; format: biochemical
# T1 construct: Recombinant near-full-length kinases, consisting of the SH2, SH3 and kinase domains plus the negative regulatory tail; made in house; host or cells: E. coli BL21Star (DE3), co-expressed with Csk and PTP1B
# T1 sequence (P08631 78-526 T333F limits assumed): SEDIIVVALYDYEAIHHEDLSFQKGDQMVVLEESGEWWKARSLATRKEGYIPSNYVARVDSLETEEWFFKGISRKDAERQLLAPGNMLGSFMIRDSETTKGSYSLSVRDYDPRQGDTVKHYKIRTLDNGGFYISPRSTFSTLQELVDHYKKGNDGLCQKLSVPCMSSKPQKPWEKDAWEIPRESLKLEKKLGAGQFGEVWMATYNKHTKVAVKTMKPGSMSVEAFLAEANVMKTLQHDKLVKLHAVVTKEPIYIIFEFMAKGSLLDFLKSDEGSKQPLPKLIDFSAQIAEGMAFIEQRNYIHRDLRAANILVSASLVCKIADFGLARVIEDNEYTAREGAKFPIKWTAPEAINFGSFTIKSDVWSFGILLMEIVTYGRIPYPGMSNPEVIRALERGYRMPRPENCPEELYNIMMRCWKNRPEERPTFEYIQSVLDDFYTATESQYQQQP
# [2] = system: TF-1/Flt3-ITD N676S cells; experiment: CellTiter-Blue cell viability; format: cell-based, human
# Method: (§2) Full-length cDNA clones of each kinase were subcloned into the retroviral expression vectors pMSCV-neo or pMSCV-puro (Clontech). High-titer retroviral stocks were produced in 293T cells co-transfected with each pMSCV construct and an amphotropic packaging vector. TF-1 cells (10^6) were resuspended in 5.0 mL of undiluted viral supernatant and centrifuged at 1,000 × g for 4 h at 18 °C in the presence of 4 μg/mL Polybrene (Sigma-Aldrich) to enhance viral transduction. Forty-eight hours after infection, the cells began a two-week selection period with 400 μg/ml G-418 (neo vectors) or 3 μg/mL puromycin (puro vectors). Following selection, cells were maintained with 200 μg/ml G418 or 1 μg/mL puromycin. For double transduction experiments, TF-1 cells were first infected with the pMSCV-neo-Flt3-ITD virus, selected with G418, followed by the pMSCV-puro virus carrying Hck or Fgr and puromycin selection. All TF-1 cell populations that expressed Flt3-ITD (including inhibitor-resistant mutants) proliferated in a GM-CSF-independent manner, and were therefore subcultured in the absence of GM-CSF.
# as §1
# TF-1/Flt3-ITD cells = experiment: CellTiter-Blue cell viability; format: cell-based, human; conditions: 72 hours
# Method: as §2, §1
# [3] = system: TF-1/FLT3-ITD + Fgr-T338L cells; experiment: CellTiter-Blue cell viability; format: cell-based, human
# Method: as §2, §1
# [4] = system: TF-1/FLT3-ITD + Fgr-T338M cells; experiment: CellTiter-Blue cell viability; format: cell-based, human
# Method: as §2, §1
# [5] = system: TF-1/Flt3-ITD N676S + Hck cells; experiment: CellTiter-Blue cell viability; format: cell-based, human; conditions: S9 Fig, 48 h
# Method: as §2, §1
# [6] = system: TF-1/Flt3-ITD N676S + Fgr cells; experiment: CellTiter-Blue cell viability; format: cell-based, human; conditions: S9 Fig, 48 h
# Method: as §2, §1
# [7] = system: TF-1/Flt3-ITD + Hck cells; experiment: CellTiter-Blue cell viability; format: cell-based, human; conditions: Fig 3; Flt3-ITD: WT; SFK: Hck; 72 hours; read-out: IC50, nM (growth inhibition)
# Method: as §2, §1
# [8] = system: TF-1/Flt3-ITD D835Y + Hck cells; experiment: CellTiter-Blue cell viability; format: cell-based, human; conditions: Fig 3, SFK: Hck, 72 hours, read-out: IC50, nM (growth inhibition)
# Method: as §2, §1
# [9] = system: TF-1/Flt3-ITD + Fgr cells; experiment: CellTiter-Blue cell viability; format: cell-based, human; conditions: Fig 3; Flt3-ITD: WT; SFK: Fgr; 72 hours; read-out: IC50, nM (growth inhibition)
# Method: as §2, §1
# MOLM13 cells (parent) = experiment: CellTiter-Blue cell viability; format: cell-based, human
# Method: (§3) Gibco/ThermoFisher). Parental TF-1 cells also require recombinant human GM-CSF (1 ng/mL; ThermoFisher). MOLM13 and MOLM14 cells were obtained from Leibniz Institute Deutsche Sammlung von Mikroorganismen (DSMZ) and grown in RPMI 1640 medium containing 20% FBS and Antibiotic-Antimycotic. […] Cell viability was assessed using the CellTiter-Blue reagent according to the manufacturer’s instructions (Promega). Fluorescence intensity, which correlates directly with viable cell number, was measured using a SpectraMax M5 microplate reader. Each experiment included three technical replicates per condition, and each experiment was repeated at least three times.
# MV4-11 cells (parent) = experiment: CellTiter-Blue cell viability; format: cell-based, human
# Method: as §3
# MOLM14 cells (parent) = experiment: CellTiter-Blue cell viability; format: cell-based, human
# Method: as §3
# [10] = system: Flt3-ITD N676S in TF-1 cells; experiment: Flt3 immunoprecipitation, anti-phosphotyrosine immunoblot; format: cell-based, human; conditions: vs Flt3-ITD; overnight
# Method: Immunoprecipitation reactions were incubated overnight at 4 °C.
# Lyn T338F = molecular target: T2, Lyn T338F (Homo sapiens, UniProt P07948, T319F); experiment: Z'-LYTE in vitro kinase assay; format: biochemical; conditions: read-out: A-419259 IC50, Fig 5B, ATP at Km, mean ± SE, three independent determinations
# T2 construct: Recombinant near-full-length kinases, consisting of the SH2, SH3 and kinase domains plus the negative regulatory tail; made in house; host or cells: E. coli BL21Star (DE3), co-expressed with Csk and PTP1B
# T2 sequence (P07948 63-512 T319F limits assumed): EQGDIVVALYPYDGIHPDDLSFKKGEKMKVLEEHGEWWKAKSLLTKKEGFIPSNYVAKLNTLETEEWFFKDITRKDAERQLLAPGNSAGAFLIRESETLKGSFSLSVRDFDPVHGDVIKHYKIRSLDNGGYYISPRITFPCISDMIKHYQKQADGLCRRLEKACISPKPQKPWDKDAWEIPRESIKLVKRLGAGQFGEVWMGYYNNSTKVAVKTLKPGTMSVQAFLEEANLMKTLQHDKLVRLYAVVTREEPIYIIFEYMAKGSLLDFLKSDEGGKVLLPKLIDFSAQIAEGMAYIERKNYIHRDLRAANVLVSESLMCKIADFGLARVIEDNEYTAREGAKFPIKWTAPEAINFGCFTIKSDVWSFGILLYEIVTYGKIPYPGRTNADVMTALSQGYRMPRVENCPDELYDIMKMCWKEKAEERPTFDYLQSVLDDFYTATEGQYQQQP
# [11] = system: chemotherapy-resistant AML patient xenografts; set-up: method as in PMID 23596204; conditions: mice; cited from earlier work
# Lyn T338M = molecular target: T3, Lyn T338M (Homo sapiens, UniProt P07948, T319M); experiment: Z'-LYTE in vitro kinase assay; format: biochemical; conditions: read-out: A-419259 IC50, Fig 5B, ATP at Km, mean ± SE, three independent determinations
# T3 construct: Recombinant near-full-length kinases, consisting of the SH2, SH3 and kinase domains plus the negative regulatory tail; made in house; host or cells: E. coli BL21Star (DE3), co-expressed with Csk and PTP1B
# T3 sequence (P07948 63-512 T319M limits assumed): as the sequence (P07948 63-512 T319F limits assumed) above, with F257M counted along it
# [12] = read-out: A-419259 Sensitivity (IC50, nM) Initial, mean ± SE (n = 3)
# [13] = read-out: A-419259 Sensitivity (IC50, nM) Post-holiday, after 4 weeks passage in the absence of inhibitor, mean ± SE (n = 3)
smiles,measurement,setting,value
CN1CCN(C2CCC(n3cc(-c4ccc(Oc5ccccc5)cc4)c4c(N)ncnc43)CC2)CC1 (centres unmarked) [A-419259],growth inhibition,[1],less than 20%
same,reduction of kinase sensitivity to A-419259,"Hck T338F; Hck gatekeeper threonine to phenylalanine, vs wild-type",~5 fold
same,IC50,"Hck T338F; read-out: A-419259 IC50, Fig 5B, Hck T338F, ATP at Km, mean ± SE, three independent determinations",201 ± 1 nM
same,IC50,"[2]; Fig 9A, 72 hours, read-out: IC50 (growth arrest)",176 nM
same,IC50,"[2]; S9 Fig, N676S control, 48 h, read-out: IC50 (cell viability)",89.1 nM
same,IC50,"TF-1/Flt3-ITD cells; Fig 3, Flt3-ITD: WT, SFK: none, read-out: IC50, nM (growth inhibition)",18.2 nM
same,IC50,"TF-1/Flt3-ITD cells; Fig 9A, control TF-1/Flt3-ITD cells, read-out: IC50 (growth arrest)",26 nM
same,resistance to the inhibitor in cells,[3]; Fgr T338L as printed,about 3 fold
same,IC50,"[3]; Fig 6B, TF-1/FLT3-ITD + Fgr-T338L, 72 hours",> 1000 nM
same,resistance to the inhibitor in cells,[4],about 3 fold
same,IC50,[5],129 nM
same,IC50,[6],173 nM
same,IC50,[7],15.4 nM
same,IC50,[8],> 100 nM
same,IC50,[9],22.6 nM
same,IC50,MOLM13 cells (parent); [12],40.3 ± 9.9 nM
same,IC50,MOLM13 cells (parent); [13],38.4 ± 0.9 nM
same,IC50,"MV4-11 cells (parent); Fig 3A, 72 hours, read-out: IC50 (cell viability)",58 nM
same,IC50,"MV4-11 cells (parent); read-out: A-419259 Sensitivity (IC50, nM) Initial, MV4-11 Parent, mean ± SE (n = 3)",28.3 ± 3.5 nM
same,IC50,"MV4-11 cells (parent); read-out: A-419259 Sensitivity (IC50, nM) Post-holiday, MV4-11 Parent, after 4 weeks passage in the absence of inhibitor, mean ± SE (n = 3)",27.5 ± 4.3 nM
same,IC50,MOLM14 cells (parent); [12],14.3 ± 1.5 nM
same,IC50,MOLM14 cells (parent); [13],26.4 ± 7.7 nM
same,sensitivity of phosphotyrosine content to A-419259,[10],significantly reduced sensitivity
same,IC50,Lyn T338F,242 ± 1.2 nM
same,effect on chemotherapy-resistant AML patient xenografts,[11],completely eliminates
same,IC50,Lyn T338M,127.8 ± 1 nM
